Laboratory results: publication PMC3447978, “High-Throughput 1,536-Well Fluorescence Polarization Assays for α1-Acid Glycoprotein and Human Serum Albumin Binding” (PLoS ONE, 2012)

Assays:
[1] = biological target: T1, human serum albumin (HSA) (Homo sapiens, UniProt P02768); experiment: biochemical
[2] = biological target: T2, α1-acid glycoprotein (AGP) (Homo sapiens, UniProt P02763); experiment: AGP LOPAC1280 1,536-well qHTS screen (FP)
[3] = biological target: T1, human serum albumin (HSA); experiment: HSA 96-well fluorescence polarization displacement assay (dansyl sarcosine probe, Sudlow Site II)
[4] = biological target: HSA protein-coated beads (Homo sapiens, UniProt P02768); experiment: HSA protein-coated bead assay with HPLC analysis; assay type: binding; conditions: compound 50 µM
Chain of HSA protein-coated beads (P02768 25-609): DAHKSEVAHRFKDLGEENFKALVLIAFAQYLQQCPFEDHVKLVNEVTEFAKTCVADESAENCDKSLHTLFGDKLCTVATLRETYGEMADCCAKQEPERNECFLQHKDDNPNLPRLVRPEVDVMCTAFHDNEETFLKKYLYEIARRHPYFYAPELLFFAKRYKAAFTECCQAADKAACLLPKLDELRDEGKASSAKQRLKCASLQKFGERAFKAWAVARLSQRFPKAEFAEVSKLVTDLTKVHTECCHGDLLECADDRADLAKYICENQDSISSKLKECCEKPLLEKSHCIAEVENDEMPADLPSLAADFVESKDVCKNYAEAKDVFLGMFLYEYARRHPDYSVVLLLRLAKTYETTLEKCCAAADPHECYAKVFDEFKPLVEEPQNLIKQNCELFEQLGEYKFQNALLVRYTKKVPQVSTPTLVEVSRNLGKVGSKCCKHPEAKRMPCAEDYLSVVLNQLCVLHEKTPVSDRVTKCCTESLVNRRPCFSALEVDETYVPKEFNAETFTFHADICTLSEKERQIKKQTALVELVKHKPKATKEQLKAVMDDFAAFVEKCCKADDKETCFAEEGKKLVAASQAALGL
Description: (§1) This system features the proteins of interest covalently bound to the surface of silica beads through the use of proprietary attachment chemistry. The surface was designed to minimize interactions with drug molecules, thus preventing non-specific binding of test substances.
(§2) AGP or HSA protein-coated beads (Sovicell, Leipzig, Germany; distributed by ADMEcell, Emeryville, CA) were thawed at room temperature for two hours. Stock solutions of each compound were diluted to a final sample concentration of 20 µM or 50 µM. Samples (45 µL) were added to 405 µL of premixed solutions of buffer and AGP or HSA coated beads and mixed thoroughly to keep the beads suspended in solution to allow for the compounds to bind to the protein coated beads, [30]. After centrifuging, 100 µL of supernatant were transferred to a 96-well plate and analyzed on an Agilent 1100 HPLC coupled to a diode array detector.
(§3) After equilibrating the column with 50 mM ammonium acetate buffer/acetonitrile (99%/1%) at a flow rate of 500 µL/min for ∼2 minutes, compounds were detected by initiating a five minute gradient to 100% acetonitrile, held for 3 minutes, followed by a one minute gradient to 1% acetonitrile, where the composition was then maintained for the final three minutes, for a total run time of 12 minutes. The diode array detector channels were set to 230 nm, 260 nm, 300 nm, and 340 nm (bandwidth = 5 nm). Data were evaluated using the Sovicell-supplied Microsoft Excel (Redmond, WA) spreadsheets, [44].

[5] = biological target: T1, human serum albumin (HSA); experiment: HSA 1,536-well fluorescence polarization displacement assay (dansyl sarcosine probe, Sudlow Site II); assay type: binding; parameters: Albumin solution from human serum (HSA, Sigma-Aldrich, St. Louis, MO); purchased Sigma-Aldrich; host or cells: human serum
Description: For 1,536-well format (Table 2), a 3 µL mixture of HSA and dansyl sarcosine (bound control) or 3 µL of dansyl sarcosine (unbound control) were dispensed into a 1,536-well assay plate using a BioRAPTR. The plate was centrifuged at 1,000 rpm for 15 seconds, covered and incubated for 10 minutes, and FP data were collected on a ViewLux using the optics described above.
FP was measured 15 min after compound addition. Percent inhibition was derived from the bound (i.e., protein-probe complex), or 0% neutral control, and the unbound (i.e., free probe), or 100% displaced control, respectively, by calculating their mean values, and normalizing the data using GraphPad Prism 4.

[6] = biological target: T2, α1-acid glycoprotein (AGP); experiment: in vitro; conditions: human
Description: as §1, §2, §3

[7] = biological target: T2, α1-acid glycoprotein (AGP); experiment: biochemical
[8] = biological target: T2, α1-acid glycoprotein (AGP); experiment: biochemical; remark: listed apart in the source
[9] = biological target: T1, human serum albumin (HSA); experiment: in vitro
[10] = biological target: AGP protein-coated beads (Homo sapiens, UniProt P02763); experiment: in vitro; conditions: protein-coated bead Kd values
Chain of AGP protein-coated beads (P02763 19-201): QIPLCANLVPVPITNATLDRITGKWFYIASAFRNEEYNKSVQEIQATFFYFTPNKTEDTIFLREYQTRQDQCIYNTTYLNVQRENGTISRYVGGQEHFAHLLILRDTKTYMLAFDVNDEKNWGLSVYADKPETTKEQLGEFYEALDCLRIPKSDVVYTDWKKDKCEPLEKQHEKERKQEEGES
Description: as §1, §2, §3

[11] = AGP 1,536-well Screen IC50, LOPAC1280 screen, top compound concentration 144 µM
[12] = read-out: HSA 1,536-well IC50 (extrapolated)
[13] = IC50 in AGP LOPAC1280 screen, validation set members present in the LOPAC1280 collection

T1 sequence (P02768 25-609): as the sequence (P02768 25-609) above
T2 sequence (P02763 19-201): as the sequence (P02763 19-201) above

Structure (SMILES) | IC50 [1] [µM] | IC50 [2] [µM] | IC50 [3] [µM] | Kd at 2 min, 50 µM [6] [µM] | IC50 [7] [µM] | other results
CN(C)c1cc2c(Nc3ccc4c(cnn4Cc4ccccc4)c3)ncnc2cn1 [GW2974] | 7.94 | > 144 | 4.65 |  |  | 
OCCN(CCO)c1nc(N2CCCCC2)c2nc(N(CCO)CCO)nc(N3CCCCC3)c2n1 [Dipyridamole, dipyridamole] | 40 |  | 62.2 |  |  | Kd [4]: 35.6 µM; IC50 ([5]; read-out: HSA 1,536-well IC50): > 1510 µM
COc1ccc2c(c1)c(CC(=O)O)c(C)n2C(=O)c1ccc(Cl)cc1 [Indomethacin, indomethacin] |  |  |  | 78.8 |  | 
OCc1ccc(-c2nn(Cc3ccccc3)c3ccccc23)o1 [YC-1] | 44.7 |  | 5.07 |  | 4.83 | IC50 [2, 11]: 5.62 µM
COc1cc2nc(N3CCN(C(=O)OCc4ccccc4)C(C(=O)NC(C)(C)C)C3)nc(N)c2cc1OC [L-765,314] | 70.8 | 14.1 | 5.21 |  | 2.03 | 
Nc1nc(N)c2nc(CNc3ccc(C(=O)N[C@@H](CCC(=O)O)C(=O)O)cc3)cnc2n1 [Aminopterin, aminopterin] | 8.91 | 56.2 | 22 |  | 306 | 
CCCCC1C(=O)N(c2ccccc2)N(c2ccccc2)C1=O [Phenylbutazone, phenylbutazone] |  |  |  | 247 | > 1000 | IC50 [8]: 1050 µM
COc1ccc(C(CN(C)C)C2(O)CCCCC2)cc1 (centres unmarked) [Venlafaxine, venlafaxine] |  | > 144 | > 1000 |  | > 1000 | IC50 [9]: > 151 µM
O=C1N(c2ccccc2)c2ccccc2C1(Cc1ccncc1)Cc1ccncc1 [Linopirdine, linopirdine] |  | 35.5 |  |  | 21.7 | IC50 ([9]; probe dansyl sarcosine): > 151 µM
CN(C)CCCN1c2ccccc2CCc2ccccc21 [Imipramine, imipramine] |  |  | 5200 | 10.4 |  | Ratio (HSA Kd / AGP Kd) [10]: 14; Kd [4]: 149 µM; IC50 [5, 12]: > 1510 µM
C=CCc1ccccc1OCC(O)CNC(C)C (centres unmarked) [Alprenolol, alprenolol] |  |  | 1700 | 33.8 | 273 | HSA Kd [4]: apparent inability to bind to the HSA protein coated beads; IC50 [8]: 276 µM; IC50 ([5]; read-out: HSA 1,536-well IC50): > 1510 µM
CCCC(=O)NCCc1c2n(c3ccc(OC)cc13)CCCc1ccccc1-2 [K 185] | 56.2 | 20 | 83.2 |  | 10.5 | 
Nc1ccc2c3c(cccc13)C(=O)NC2=O [4-Amino-1,8-naphthalimide, 4-amino-1,8-naphthalimide] | 7.94 |  | 37 |  | 832 | IC50 [2, 11]: 11.2 µM
CN(C)CCCN1c2ccccc2Sc2ccc(Cl)cc21 [Chlorpromazine, chlorpromazine] |  |  |  | 7.68 |  | IC50 [2, 13]: 44.7 µM
CC#C[C@]1(O)CC[C@H]2[C@@H]3CCC4=CC(=O)CCC4=C3[C@@H](c3ccc(N(C)C)cc3)C[C@@]21C [Mifepristone, mifepristone] |  |  |  |  | 2.51 | IC50 ([9]; probe dansyl sarcosine): > 151 µM; IC50 [2, 11]: 6.31 µM
CN(C)CCC=C1c2ccccc2CCc2ccccc21 [Amitriptyline, amitriptyline] |  |  | 6750 | 1.89 | 224 | Ratio (HSA Kd / AGP Kd) [10]: 63; Kd [4]: 119 µM; IC50 [8]: 221 µM; IC50 ([5]; read-out: HSA 1,536-well IC50): > 1510 µM
CC(C)NCC(O)COc1cccc2ccccc12 (centres unmarked) [Propranolol, propranolol] |  |  | 5330 | 19.2 |  | Ratio (HSA Kd / AGP Kd) [10]: 29; Kd [4]: 548 µM; IC50 [2, 13]: 50.1 µM; IC50 ([2]; average IC50, intraplate control, AGP screen, LOPAC1280 screen intraplate control): 48.7 µM; IC50 [5, 12]: > 1510 µM
CCC(C)N(C)C(=O)c1cc2ccccc2c(-c2ccccc2Cl)n1 (centres unmarked) [PK 11195] |  | 22.4 |  |  | 23.9 | IC50 ([9]; probe dansyl sarcosine): > 151 µM
